# Assay results: US20180200257A1, “METHODS FOR THE TREATMENT OF INFLAMMATORY DISORDERS” (Galapagos NV, priority 2015, published 2018)
# Test system: subjects with moderately to severely active RA who have an inadequate response to methotrexate (MTX)
# Assay: Study 1 (add-on to MTX) - Creatinine levels
# Type: in vivo, human
# Procedure: Double-blind, placebo-controlled add on study in subjects with moderately to severely active RA who have an inadequate response to methotrexate (MTX) (oral or parenteral).
# 595 subjects randomized to one of 6 dose regimens of Compound 1 (dosed as [Compound 1:HCl:3H2O]) (3 dose levels administered either once or twice daily) or placebo on top of each subject's stable dose of MTX.
# Compound 1 (dosed as [Compound 1:HCl:3H2O]) is dosed for twelve weeks once daily (q.d.) (50 mg, 100 mg or 200 mg) or twice daily (b.i.d.) (25 mg, 50 mg or 100 mg); or placebo.
# At Week 12, the subjects on placebo who have not achieved 20% improvement in swollen joint count (SJC66) and tender joint count (TJC68) are re-randomized automatically to receive Compound 1 (dosed as a [Compound 1:HCl:3H2O]) either at 100 mg q.d. or 50 mg b.i.d. doses in a blinded fashion; subjects on 50 mg q.d. who have not achieved 20% improvement in SJC66 and TJC68 will be assigned to 100 mg q.d. and subjects on 25 mg b.i.d. that have not achieved a 20% improvement in SJC66 and TJC68 will be assigned to 50 mg b.i.d. Subjects who switch treatment at week 12 are handled as if they discontinued at week 12 for the purpose of statistical analysis, whereas subjects in the other groups will maintain their randomized treatment until Week 24.
# Creatinine levels determination is available at Quest Diagnostics, Clinical Trials, Quest House, 125-135 Staines Road, Hounslow, Middlesex, TW3 3JB, United Kingdom under Catalogue n# 82565. For Study 3, the data are obtained at BARC Europe, 3B,Industrie Park, Zwijnaarde, B-9052 Ghent, Belgium.
# The Enzymatic method is based on the determination of sarcosine after conversion of creatinine with the aid of creatininase, creatinase, and sarcosine oxidase. The liberated hydrogen peroxide reacts with 4-aminophenazone and HTIB to form a quinone imine chromogen. The reaction is catalyzed by peroxidase. The color intensity is directly proportional to concentration of creatinine present and can be measured photometrically.
# [1] = 2 × 25 mg b.i.d. (N = 86), week 0
# [2] = 2 × 25 mg b.i.d. (N = 86), week 1
# [3] = 2 × 25 mg b.i.d. (N = 86), week 2
# [4] = 2 × 25 mg b.i.d. (N = 86), week 4
# [5] = 2 × 25 mg b.i.d. (N = 86), week 8
# [6] = 2 × 25 mg b.i.d. (N = 86), week 12
# [7] = 2 × 50 mg b.i.d. (N = 85), week 0
# [8] = 2 × 50 mg b.i.d. (N = 85), week 1
# [9] = 2 × 50 mg b.i.d. (N = 85), week 2
# [10] = 2 × 50 mg b.i.d. (N = 85), week 4
# [11] = 2 × 50 mg b.i.d. (N = 85), week 8
# [12] = 2 × 50 mg b.i.d. (N = 85), week 12
# [13] = 2 × 100 mg b.i.d. (N = 84), week 0
# [14] = 2 × 100 mg b.i.d. (N = 84), week 1
# [15] = 2 × 100 mg b.i.d. (N = 84), week 2
# [16] = 2 × 100 mg b.i.d. (N = 84), week 4
# [17] = 2 × 100 mg b.i.d. (N = 84), week 8
# [18] = 2 × 100 mg b.i.d. (N = 84), week 12
# [19] = continued 50 mg q.d. (N = 63), week 0
# [20] = continued 50 mg q.d. (N = 63), week 1
# [21] = continued 50 mg q.d. (N = 63), week 2
# [22] = continued 50 mg q.d. (N = 63), week 24
# [23] = placebo switched to 50 mg b.i.d. at week 12 (N = 15), week 16
# [24] = placebo switched to 50 mg b.i.d. at week 12 (N = 15), week 20
# [25] = placebo switched to 50 mg b.i.d. at week 12 (N = 15), week 24
compound,measurement,setting,value
"O=C(Nc1nc2cccc(-c3ccc(CN4CCS(=O)(=O)CC4)cc3)n2n1)C1CC1 [Compound 1, cyclopropanecarboxylic acid {5-[4-(1,1-dioxo-thiomorpholin-4-ylmethyl)-phenyl]-[1,2,4]triazolo[1,5-a]pyridin-2-yl}-amide]",Creatinine Mean CFB,"50 mg q.d. (N = 82), week 0",0 µmol/L
same,Creatinine Mean percentage CFB,"50 mg q.d. (N = 82), week 0",0%
same,Creatinine Mean CFB,"50 mg q.d. (N = 82), week 1",1 µmol/L
same,Creatinine Mean percentage CFB,"50 mg q.d. (N = 82), week 1",3%
same,Creatinine Mean CFB,"50 mg q.d. (N = 82), week 2",1 µmol/L
same,Creatinine Mean percentage CFB,"50 mg q.d. (N = 82), week 2",2%
same,Creatinine Mean CFB,"50 mg q.d. (N = 82), week 4",1 µmol/L
same,Creatinine Mean percentage CFB,"50 mg q.d. (N = 82), week 4",3%
same,Creatinine Mean CFB,"50 mg q.d. (N = 82), week 8",2 µmol/L
same,Creatinine Mean percentage CFB,"50 mg q.d. (N = 82), week 8",4%
same,Creatinine Mean CFB,"50 mg q.d. (N = 82), week 12",2 µmol/L
same,Creatinine Mean percentage CFB,"50 mg q.d. (N = 82), week 12",3%
same,Creatinine Mean CFB,"100 mg q.d. (N = 85), week 0",0 µmol/L
same,Creatinine Mean percentage CFB,"100 mg q.d. (N = 85), week 0",0%
same,Creatinine Mean CFB,"100 mg q.d. (N = 85), week 1",2 µmol/L
same,Creatinine Mean percentage CFB,"100 mg q.d. (N = 85), week 1",4%
same,Creatinine Mean CFB,"100 mg q.d. (N = 85), week 2",3 µmol/L
same,Creatinine Mean percentage CFB,"100 mg q.d. (N = 85), week 2",5%
same,Creatinine Mean CFB,"100 mg q.d. (N = 85), week 4",2 µmol/L
same,Creatinine Mean percentage CFB,"100 mg q.d. (N = 85), week 4",4%
same,Creatinine Mean CFB,"100 mg q.d. (N = 85), week 8",2 µmol/L
same,Creatinine Mean percentage CFB,"100 mg q.d. (N = 85), week 8",4%
same,Creatinine Mean CFB,"100 mg q.d. (N = 85), week 12",4 µmol/L
same,Creatinine Mean percentage CFB,"100 mg q.d. (N = 85), week 12",7%
same,Creatinine Mean CFB,"200 mg q.d. (N = 86), week 0",0 µmol/L
same,Creatinine Mean percentage CFB,"200 mg q.d. (N = 86), week 0",0%
same,Creatinine Mean CFB,"200 mg q.d. (N = 86), week 1",3 µmol/L
same,Creatinine Mean percentage CFB,"200 mg q.d. (N = 86), week 1",6%
same,Creatinine Mean CFB,"200 mg q.d. (N = 86), week 2",3 µmol/L
same,Creatinine Mean percentage CFB,"200 mg q.d. (N = 86), week 2",6%
same,Creatinine Mean CFB,"200 mg q.d. (N = 86), week 4",4 µmol/L
same,Creatinine Mean percentage CFB,"200 mg q.d. (N = 86), week 4",7%
same,Creatinine Mean CFB,"200 mg q.d. (N = 86), week 8",4 µmol/L
same,Creatinine Mean percentage CFB,"200 mg q.d. (N = 86), week 8",7%
same,Creatinine Mean CFB,"200 mg q.d. (N = 86), week 12",4 µmol/L
same,Creatinine Mean percentage CFB,"200 mg q.d. (N = 86), week 12",8%
same,Creatinine Mean CFB,[1],0 µmol/L
same,Creatinine Mean percentage CFB,[1],0%
same,Creatinine Mean CFB,[2],1 µmol/L
same,Creatinine Mean percentage CFB,[2],2%
same,Creatinine Mean CFB,[3],1 µmol/L
same,Creatinine Mean percentage CFB,[3],2%
same,Creatinine Mean CFB,[4],0 µmol/L
same,Creatinine Mean percentage CFB,[4],2%
same,Creatinine Mean CFB,[5],2 µmol/L
same,Creatinine Mean percentage CFB,[5],3%
same,Creatinine Mean CFB,[6],1 µmol/L
same,Creatinine Mean percentage CFB,[6],3%
same,Creatinine Mean CFB,[7],0 µmol/L
same,Creatinine Mean percentage CFB,[7],0%
same,Creatinine Mean CFB,[8],3 µmol/L
same,Creatinine Mean percentage CFB,[8],5%
same,Creatinine Mean CFB,[9],4 µmol/L
same,Creatinine Mean percentage CFB,[9],6%
same,Creatinine Mean CFB,[10],3 µmol/L
same,Creatinine Mean percentage CFB,[10],5%
same,Creatinine Mean CFB,[11],3 µmol/L
same,Creatinine Mean percentage CFB,[11],6%
same,Creatinine Mean CFB,[12],4 µmol/L
same,Creatinine Mean percentage CFB,[12],7%
same,Creatinine Mean CFB,[13],0 µmol/L
same,Creatinine Mean percentage CFB,[13],0%
same,Creatinine Mean CFB,[14],5 µmol/L
same,Creatinine Mean percentage CFB,[14],8%
same,Creatinine Mean CFB,[15],4 µmol/L
same,Creatinine Mean percentage CFB,[15],8%
same,Creatinine Mean CFB,[16],4 µmol/L
same,Creatinine Mean percentage CFB,[16],8%
same,Creatinine Mean CFB,[17],7 µmol/L
same,Creatinine Mean percentage CFB,[17],12%
same,Creatinine Mean CFB,[18],6 µmol/L
same,Creatinine Mean percentage CFB,[18],12%
same,Creatinine Mean CFB,[19],0.0 µmol/L
same,Creatinine Mean percentage CFB,[19],0.0%
same,Creatinine Mean CFB,[20],1.4 µmol/L
same,Creatinine Mean percentage CFB,[20],3.0%
same,Creatinine Mean CFB,[21],0.7 µmol/L
same,Creatinine Mean percentage CFB,[21],1.6%
same,Creatinine Mean CFB,[22],0.6 µmol/L
same,Creatinine Mean percentage CFB,[22],2.1%
same,Creatinine Mean CFB,[23],4.2 µmol/L
same,Creatinine Mean percentage CFB,[23],8.2%
same,Creatinine Mean CFB,[24],3.6 µmol/L
same,Creatinine Mean percentage CFB,[24],7.2%
same,Creatinine Mean CFB,[25],4.6 µmol/L
same,Creatinine Mean percentage CFB,[25],8.7%
